# Measured values as given in US20180344715A1, “WNT/BETA-CATENIN SIGNAL TRANSDUCTION INHIBITORS AND THEIR USE IN TREATMENT OR PREVENTION OF DISEASES AND CONDITIONS LINKED WITH SAID TRANSDUCTION” (BERGEN TEKNOLOGIOVERFORING AS, priority 2015, published 2018).
# How the values were obtained:
# SW480 cells = assay: Soft agar colony-formation assay, SW480; format: cell-based; settings: 10 days
# Description: The soft agar colony-formation assay was performed using the CellTransformation Assays kit (catalog no. CBA-130; Cell Biolabs, Inc.) according to the recommended protocol. […] Medium containing drugs was replaced every 3 d. For the clonogenic assay, positively transfected cells (wild-type and mutant GFP-SHPRH and control GFP) were enriched by FACS and were seeded in six-well plates at a density of 3,000 cells per well. Medium was changed every 3 d. On the last day colony growth was quantified by crystal violet staining and measurement of OD at 590 nm.
# MED23 = target: T1, MED23 (Homo sapiens, UniProt Q9ULK4); assay: Chromatin immunoprecipitation (ChIP) of MED23 at Wnt target genes; format: cell-based; settings: SW480, 5 μM overnight
# T1 construct: endogenous in cells; host or cells: SW480
# T1 sequence (Q9ULK4 1-1368): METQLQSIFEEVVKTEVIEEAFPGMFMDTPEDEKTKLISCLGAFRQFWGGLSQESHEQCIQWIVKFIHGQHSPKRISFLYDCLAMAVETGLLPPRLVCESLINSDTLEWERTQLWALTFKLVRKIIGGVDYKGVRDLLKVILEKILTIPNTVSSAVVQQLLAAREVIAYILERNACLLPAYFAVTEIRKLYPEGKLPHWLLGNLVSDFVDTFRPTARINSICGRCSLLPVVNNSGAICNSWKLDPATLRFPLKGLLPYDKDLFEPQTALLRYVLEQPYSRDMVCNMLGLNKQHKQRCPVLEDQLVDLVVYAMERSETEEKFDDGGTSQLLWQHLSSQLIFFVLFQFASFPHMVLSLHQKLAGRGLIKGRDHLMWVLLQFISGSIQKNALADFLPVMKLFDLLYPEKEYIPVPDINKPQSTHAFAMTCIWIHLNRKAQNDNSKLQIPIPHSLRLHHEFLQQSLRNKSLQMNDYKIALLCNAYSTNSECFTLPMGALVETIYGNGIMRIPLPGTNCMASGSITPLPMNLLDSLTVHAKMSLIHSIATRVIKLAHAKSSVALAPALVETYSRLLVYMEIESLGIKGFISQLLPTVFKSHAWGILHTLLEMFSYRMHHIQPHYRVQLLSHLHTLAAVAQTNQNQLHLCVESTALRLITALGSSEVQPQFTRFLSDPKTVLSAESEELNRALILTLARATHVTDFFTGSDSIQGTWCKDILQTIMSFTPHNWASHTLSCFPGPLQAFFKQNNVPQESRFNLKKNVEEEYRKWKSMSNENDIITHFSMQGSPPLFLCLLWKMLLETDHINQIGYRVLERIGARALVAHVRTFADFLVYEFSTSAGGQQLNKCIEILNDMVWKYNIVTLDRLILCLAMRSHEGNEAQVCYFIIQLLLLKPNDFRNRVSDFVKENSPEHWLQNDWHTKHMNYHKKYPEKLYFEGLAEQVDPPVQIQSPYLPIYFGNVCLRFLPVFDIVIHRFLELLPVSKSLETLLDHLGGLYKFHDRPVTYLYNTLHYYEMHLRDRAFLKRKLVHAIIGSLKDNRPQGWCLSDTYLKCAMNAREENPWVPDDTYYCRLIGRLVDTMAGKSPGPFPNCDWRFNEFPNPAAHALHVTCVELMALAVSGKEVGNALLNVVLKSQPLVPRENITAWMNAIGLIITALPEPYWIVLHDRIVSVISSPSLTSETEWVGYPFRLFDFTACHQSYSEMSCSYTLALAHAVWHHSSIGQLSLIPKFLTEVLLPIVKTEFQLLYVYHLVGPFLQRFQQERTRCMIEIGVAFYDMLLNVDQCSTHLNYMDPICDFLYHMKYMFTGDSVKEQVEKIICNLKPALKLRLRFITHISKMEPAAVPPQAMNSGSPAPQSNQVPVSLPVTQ
# Description: ChIP was performed according to the protocol previously described with a few modifications on the crosslinking procedures (Ke, X. S. et al., 2009, PLoS One 4, e4687). […] The reaction was quenched with 1/50 volume of 2.5 M glycine. Cells were lysed and the nuclei were sonicated to fragments ranging from 200 bp to 500 bp. After saving 0.2% total chromatin for input DNA purification, sonicated lysates were equally divided to three tubes and immunoprecipitated with Protein G beads (Life technologies, 10004D) coupled with 5 μg mouse IgG (15381, Sigma), antibody against MED23(BD550429, clone D27-1805, BD Biosciences) and β-catenin (ab22656, clone 12F7, Abcam), respectively. The immunoprecipitated DNA was purified and examined by PCR described below.
# To determine the purified DNA from ChIP samples, quantitative PCR was performed with RT^2 SYBR Green/ROX PCR Master Mix and the PCR reactions were examined by 2% agarose gel electrophoresis. PCR primers were designed to cover the canonical TCF/β-catenin binding motifs of 6 randomly chosen β-catenin target genes (shown in FIG. 4c). The sequences and genomic locations (NCBI36/hg18) of PCR primers are listed below. GAPDH was used as a negative control.
# MED23 and β-catenin = target: T2, MED23 and β-catenin (Homo sapiens, UniProt Q9ULK4); assay: Co-immunoprecipitation of MED23 and β-catenin; format: cell-based; settings: SW480, 5 μM, 4 hours
# T2 construct: endogenous in cells; host or cells: SW480
# T2 sequence (Q9ULK4 1-1368): T1 sequence (Q9ULK4 1-1368)
# Description: Co-IP was done following the protocol of Dynabeads Co-Immunoprecipitation Kit (Life Technologies, 14321D). […] After saving 2% samples for input control, cell lysates were equally divided between 3 tubes, incubated with 3 mg Dynabeads and 21 μg mouse IgG (15381, Sigma), primary antibody against MED23 (BD550429, clone D27-1805, BD Biosciences) and β-catenin (ab22656, clone 12F7, Abcam), respectively. Input controls and proteins pulled down with individual antibodies were examined by Western blotting.
# Wnt target genes = assay: RT-PCR of Wnt target genes in 293FT cells; format: cell-based, human; settings: 24 hours
# Source text: Reverse transcription (RT) and real-time quantitative PCR (qPCR) were done as previously described (Ke, X. S. et al., 2011, Exp Cell Res 317, 234-247). For qPCR using TagMan Universal PCR Master Mix (Life technologies, 4304437), TagMan assays used for human AXIN2 (Hs00610344_m1), LEF1 (Hs01547250_m1), BMP4 (Hs03676628_s1), CTNNB1 (Hs01076483_m1), VEGFR1 (Hs01052961_m1), MED23 (Hs00606608_m1), SHPRH (Hs00542737_m1) and ACTB1 (Hs99999903_m1) were obtained from Life technologies. For RT-PCR using RT^2 SYBR Green/ROX PCR Master Mix (QIAGEN, 330520), primer oligos were made by Eurogentec (Liege, Belgium).
smiles,measurement,setting,value
"CNC(=O)c1ccccc1Sc1ccc2c(/C=C/c3ccccn3)n[nH]c2c1 [axitinib, N-Methyl-2-[[3-[(E)-2-pyridin-2-ylethenyl]-1H-indazol-6-yl]sulfanyl]benzamide]",colony growth,SW480 cells,strongly and dose-dependently inhibited
same,MED23 occupancy at TCF/LEF-binding motifs of Wnt target genes,MED23,reduced
same,endogenous association of MED23 and β-catenin,MED23 and β-catenin,disrupted
same,mRNA levels of Wnt target genes,Wnt target genes,decreases
